Results from patent EP4722201A1, “3-PHENYLISOXAZOLINE-5-CARBOXAMIDE COMPOUND, AND PREPARATION METHOD THEREFOR, HERBICIDAL COMPOSITION THEREOF AND USE THEREOF” (Jiangsu Flag Chemical Industry Co., Ltd, priority 2023, dated 2024).

Key:
Assay in all cases: Indoor herbicide activity determination, Seed Treatment; pre-emergence (soil spray)
Format in all cases: in vivo
[1] = tested on: Aegilops tauschii; conditions: read-out: Herbicidal activities (inhibition rate) Aegilops tauschii; for inhibition at 120 g/ha: 120 g a.i./ha; for inhibition at 60 g/ha: 60 g a.i./ha
Source text: (§1) The testing method for herbicide activity of the compound of the present invention was as follows:
(§2) Seed Treatment; pre-emergence: quantitative seeds of gramineous weeds (Echinochloa crusgalli, Eleusine indica, Digitaria sanguinalis, Alopecurus japonicus, Beckmannia syzigachne, Leptochloa chinensis, Polypogon fugax, Alopecurus aequalis, Lolium multiflorum, Poa annua, Aegilops tauschii, Avena fatua, Alopecurus myosuroides, Alopecurus japonicus and Alopecurus aequalis), broad-leaved weeds (Eclipta prostrata, Amaranthus retroflexus, Rorippa indica, Malachium aquaticum, Veronica polita, Conyza canadensis, Sesbania cannabina, Sagittariatrifolia and Schoenoplectiella juncoides), and Cyperus iria were sown in plastic pots having a diameter of 7 cm and holes at the bottom and filled with nutrient soil (sandy soil, pH 6.1, organic matter 1%) respectively, the seeds were covered with an appropriate amount of soil after being sown, then the soil was wetted with water from the bottom, the seeds were cultured in a constant-temperature illuminated culture room for 24 h, and the soil was sprayed by using a 3WP-2000 traveling spray tower produced by the Nanjing Institute of Agricultural Mechanization of the Ministry of Agriculture, where a rotational speed of a main shaft was 96 mm/r, a spray height was 300 mm, an effective spraying range of a nozzle was 350 mm, a spray area was 0.35 m^2, and a flow rate at the nozzle was 390 mL/min.
(§3) Post-emergence: an appropriate quantity of seeds of gramineous weeds (Echinochloa crusgalli, Eleusine indica, Digitaria sanguinalis, Alopecurus japonicus, Beckmannia syzigachne, Leptochloa chinensis, Polypogon fugax, Alopecurus aequalis, Lolium multiflorum, Poa annua, Aegilops tauschii, Avena fatua, Alopecurus myosuroides, Alopecurus japonicus and Alopecurus aequalis), broad-leaved weeds (Eclipta prostrata, Amaranthus retroflexus, Rorippa indica, Malachium aquaticum, Veronica polita, Conyza canadensis, Sesbania cannabina, Sagittariatrifolia and Schoenoplectiella juncoides), and Cyperus iria were sown in plastic pots having a diameter of 7 cm and holes at the bottom and filled with nutrient soil (sandy soil, pH 6.1, organic matter 1%) respectively, the seeds were covered with an appropriate amount of soil after being sown, then the soil was wetted with water from the bottom, the seeds were cultured in a constant-temperature illuminated culture room until a 2-4 leaf stage, and stems and leaves underwent spray treatment. After the treatment, the test materials were placed in a laboratory and cultured in the constant-temperature illuminated culture room after the liquid was naturally dry in the shade, and results were determined 21 days later. Inhibition rate of fresh weight % = (1−(fresh weight of treated plants)/(fresh weight of control plants)) × 100% [formula]

[2] = tested on: Alopecurus japonicus
Source text: as §1, §2, §3

[3] = tested on: Alopecurus myosuroides
Source text: as §1, §2, §3

[4] = tested on: Cyperus iria; conditions: read-out: Herbicidal activities (inhibition rate) Cyperus iria; for inhibition at 120 g/ha: 120 g a.i./ha; for inhibition at 60 g/ha: 60 g a.i./ha
Source text: as §1, §2, §3

[5] = tested on: Eclipta prostrata; conditions: read-out: Herbicidal activities (inhibition rate) Eclipta prostrata; for inhibition at 120 g/ha: 120 g a.i./ha; for inhibition at 60 g/ha: 60 g a.i./ha
Source text: as §1, §2, §3

[6] = tested on: Eleusine indica
Source text: as §1, §2, §3

[7] = tested on: Leptochloa chinensis
Source text: as §1, §2, §3

[8] = tested on: Lolium multiflorum
Source text: as §1, §2, §3

Structure (SMILES)	inhibition at 120 g/ha [1]	Herbicidal activities, Alopecurus japonicus (inhibition rate class) ([2]; Dosage 240 g a.i./ha)	Herbicidal activities, Alopecurus myosuroides (inhibition rate class) ([3]; Dosage 240 g a.i./ha)	inhibition at 120 g/ha [4]	inhibition at 120 g/ha [5]	Herbicidal activities, Eleusine indica (inhibition rate class) ([6]; Dosage 240 g a.i./ha)	Herbicidal activities, Leptochloa chinensis (inhibition rate class) ([7]; Dosage 240 g a.i./ha)	Herbicidal activities, Lolium multiflorum (inhibition rate class) ([8]; Dosage 240 g a.i./ha)	inhibition at 60 g/ha [1]	Herbicidal activities, Alopecurus japonicus (inhibition rate class) ([2]; Dosage 120 g a.i./ha)	Herbicidal activities, Alopecurus myosuroides (inhibition rate class) ([3]; Dosage 120 g a.i./ha)	inhibition at 60 g/ha [4]	inhibition at 60 g/ha [5]	Herbicidal activities, Eleusine indica (inhibition rate class) ([6]; Dosage 120 g a.i./ha)	Herbicidal activities, Leptochloa chinensis (inhibition rate class) ([7]; Dosage 120 g a.i./ha)	Herbicidal activities, Lolium multiflorum (inhibition rate class) ([8]; Dosage 120 g a.i./ha)
C=CC1(C(=O)N[C@H]2C[C@@H](C(=O)OCC[S+](C)[O-])C2)CC(c2cc(F)cc(F)c2)=NO1 (some centres unmarked) [I-9]	80 to 100%	A (A indicates that the inhibition rate was greater than or equal to 80% to 100%)	A (A indicates that the inhibition rate was greater than or equal to 80% to 100%)	80 to 100%	60 to 80%	A (A indicates that the inhibition rate was greater than or equal to 80% to 100%)	A (A indicates that the inhibition rate was greater than or equal to 80% to 100%)	A (A indicates that the inhibition rate was greater than or equal to 80% to 100%)	–	–	–	–	–	–	–	–
C=CC1(C(=O)N[C@H]2C[C@@H](C(=O)OCCS(C)(=O)=O)C2)CC(c2cc(F)cc(F)c2)=NO1 (some centres unmarked) [I-10]	80 to 100%	A (A indicates that the inhibition rate was greater than or equal to 80% to 100%)	A (A indicates that the inhibition rate was greater than or equal to 80% to 100%)	80 to 100%	60 to 80%	A (A indicates that the inhibition rate was greater than or equal to 80% to 100%)	A (A indicates that the inhibition rate was greater than or equal to 80% to 100%)	A (A indicates that the inhibition rate was greater than or equal to 80% to 100%)	–	–	–	–	–	–	–	–
C=C[C@]1(C(=O)N[C@H]2C[C@@H](C(=O)NOC)C2)CC(c2cc(F)cc(F)c2)=NO1 [I-23]	–	–	–	–	–	–	–	–	80 to 100%	A (A indicates that the inhibition rate was greater than or equal to 80% to 100%)	A (A indicates that the inhibition rate was greater than or equal to 80% to 100%)	80 to 100%	60 to 80%	A (A indicates that the inhibition rate was greater than or equal to 80% to 100%)	A (A indicates that the inhibition rate was greater than or equal to 80% to 100%)	A (A indicates that the inhibition rate was greater than or equal to 80% to 100%)
C=C[C@]1(C(=O)N[C@H]2C[C@@H](C(=O)OCCCCC)C2)CC(c2cc(F)cc(Cl)c2)=NO1 [I-31]	–	–	–	–	–	–	–	–	60 to 80%	–	A (A indicates that the inhibition rate was greater than or equal to 80% to 100%)	60 to 80%	80 to 100%	A (A indicates that the inhibition rate was greater than or equal to 80% to 100%)	A (A indicates that the inhibition rate was greater than or equal to 80% to 100%)	–
C=C[C@]1(C(=O)N[C@H]2C[C@@H](C(=O)OCC=CC)C2)CC(c2cc(F)cc(Cl)c2)=NO1 [I-32]	–	–	–	–	–	–	–	–	60 to 80%	B (B indicates that the inhibition rate was greater than or equal to 60% to less than 80%)	A (A indicates that the inhibition rate was greater than or equal to 80% to 100%)	60 to 80%	80 to 100%	A (A indicates that the inhibition rate was greater than or equal to 80% to 100%)	A (A indicates that the inhibition rate was greater than or equal to 80% to 100%)	B (B indicates that the inhibition rate was greater than or equal to 60% to less than 80%)
